From publication PMC11809415 (The Journal of Cell Biology, 2025)

Tests used:
F-actin [1] = assay: Actin bundling assay using low-speed centrifugation (10,000 g); assay type: biochemical, rabbit skeletal muscle α-actin; conditions: for F-actin in the pellet: 10 μM actin filaments, 5 min RT, 10,000 g
Procedure: (§1) Rabbit skeletal muscle α-actin was purified from muscle acetone powder (Pel-Freez Biologicals) as described in [Merino et al. (2018)] and stored in 50 μl aliquots at −70°C.
8 μl of actin filaments at 10 μM were mixed with peptides at the specified concentration, incubated for 5 min at room temperature, and spun down at 10,000 g for 10 min at 4°C. Aliquots of the supernatant and resuspended pellet fractions were separated on SDS-polyacrylamide gels with 2,2,2-trichloroethanol ([Ladner-Keay et al., 2018]) and visualized with ultraviolet light.

[2] = tested on: actin (ADP-ribosylation by TcART, Photorhabdus luminescens); assay: ADP-ribosylation of actin by TcART in presence of actin-binding peptides; assay type: biochemical, rabbit skeletal muscle α-actin; conditions: for ADP-ribosylation level: relative to no peptide = 1, […] actin, 314 pM TcART, 10 min 37°C
Procedure: as §1
TcART, the ADP-ribosyltransferase from P. luminescens Tc toxin, was purified from E. coli BL21-CodonPlus(DE3)-RIPL harboring the plasmid pB656 as described previously ([Belyy et al., 2022]).
A total of 8-μl mixtures of 2 μg (4.8 μM final concentration) actin and actin-binding peptides at specified concentrations were preincubated for 5 min at room temperature in the buffer containing 1 mM NAD, 20 mM Tris pH 8, 150 mM NaCl, and 1 mM MgCl2. The ADP ribosylation reaction was initiated by the addition of 0.2 ng (314 pM) of TcART to the mixture. After 10 min of incubation at 37°C, the reaction was stopped by adding Laemmli sample buffer and heating the sample at 95°C for 5 min. The components of the mixture were separated by SDS-PAGE, blotted onto a polyvinylidene difluoride (PVDF) membrane using a Trans-Blot Turbo Transfer System (Bio-Rad), and visualized using a combination of the His-tagged ADP-ribose binding protein at the concentration of 0.01 mg/ml and HisProbe-HRP conjugate. The level of actin ADP-ribosylation was quantified by densitometry using ImageJ.

actin filaments = conditions: ref Belyy et al., 2020, Kumari et al.; cited from earlier work
Excerpt: (§2) To minimize steric clashes of large probes, small fluorophore-labeled peptides have been developed. The most commonly used is Lifeact, a 17-amino acid peptide derived from the N-terminus of the Saccharomyces cerevisiae actin-binding protein 140 (Abp140).

[3] = tested on: actin-dependent morphogenesis; conditions: certain experimental systems: yeast, Drosophila, C. elegans, zebrafish, mammalian cells; ref Courtemanche et al., 2016; Spracklen et al., 2014; Ono, 2024; Xu and Du, 2021; Flores et al., 2019; cited from earlier work
Excerpt: as §2

F-actin [4] = assay: Cryo-EM of peptide mixed with F-actin; assay type: binding, rabbit skeletal muscle α-actin
Procedure: as §1
Actin filaments were prepared as for cosedimentation assays. Shortly before plunging, F-actin was diluted to 6 µM with F-buffer. […] 3 μl of sample was applied onto a freshly glow-discharged copper R2/1 300 mesh grid (Quantifoil), blotted for 8 s on both sides with blotting force −15, and plunge-frozen in liquid ethane using the Vitrobot Mark IV system (Thermo Fisher Scientific) at 13°C and 100% humidity.
The datasets were collected using a Talos Arctica transmission electron microscope (Thermo Fisher Scientific) equipped with an XFEG at 200 kV using the automated data-collection software EPU version 2.7 (Thermo Fisher Scientific). Two images per hole with a defocus range of −0.5 to −2.5 µm were collected with a K3 detector (Gatan) operated in super-resolution mode. […] After motion correction was performed in Relion (RRID:SCR_016274) version 3.1, the micrographs were imported into Cryosparc for patch CTF estimation. […]
Before deposition, the structures were refined in real space in Phenix (RRID:SCR_014224) ([Liebschner et al., 2019]) with secondary structure and reference model restraints. The statistics presented in Table 1 were calculated by MolProbity (RRID:SCR_014226) ([Williams et al., 2018]).

cells = conditions: ref Vosatka et al., 2022; cited from earlier work
Excerpt: (§3) However, in Xenopus XTC cells, expr ...

Xenopus XTC cells = conditions: ref Belin et al., 2014; cited from earlier work
Excerpt: as §3

Drosophila = conditions: ref Spracklen et al., 2014; cited from earlier work
Excerpt: as §3

primary neurons = conditions: ref Patel et al., 2017; cited from earlier work
Excerpt: as §3

Substance: Lifeact: 17-amino acid peptide derived from the N-terminus of Saccharomyces cerevisiae actin-binding protein 140 (Abp140) [reference compound]
- F-actin in the pellet (F-actin [1]; peptide 10 µM, Repeat 1): 0,07218
- F-actin in the pellet (F-actin [1]; peptide 10 µM, Repeat 2): 0,09382
- F-actin in the pellet (F-actin [1]; peptide 10 µM, Repeat 3): 0,137443
- F-actin in the pellet (F-actin [1]; peptide 100 µM, Repeat 1): 0,1046
- F-actin in the pellet (F-actin [1]; peptide 100 µM, Repeat 2): 0,117135
- F-actin in the pellet (F-actin [1]; peptide 100 µM, Repeat 3): 0,14654
- F-actin in the pellet (F-actin [1]; peptide 1000 µM, Repeat 1): 0,339777
- F-actin in the pellet (F-actin [1]; peptide 1000 µM, Repeat 2): 0,164721
- F-actin in the pellet (F-actin [1]; peptide 1000 µM, Repeat 3): 0,309232
- ADP-ribosylation level ([2]; peptide 1 µM, Repeat 1): 0,978733
- ADP-ribosylation level ([2]; peptide 1 µM, Repeat 2): 0,811616
- ADP-ribosylation level ([2]; peptide 1 µM, Repeat 3): 1,268379
- ADP-ribosylation level ([2]; peptide 3 µM, Repeat 1): 0,825802
- ADP-ribosylation level ([2]; peptide 3 µM, Repeat 2): 0,671345
- ADP-ribosylation level ([2]; peptide 3 µM, Repeat 3): 1,323177
- ADP-ribosylation level ([2]; peptide 10 µM, Repeat 1): 0,671724
- ADP-ribosylation level ([2]; peptide 10 µM, Repeat 2): 1,132312
- ADP-ribosylation level ([2]; peptide 10 µM, Repeat 3): 0,970817
- ADP-ribosylation level ([2]; peptide 30 µM, Repeat 1): 0,313245
- ADP-ribosylation level ([2]; peptide 30 µM, Repeat 2): 0,438167
- ADP-ribosylation level ([2]; peptide 30 µM, Repeat 3): 0,331448
- ADP-ribosylation level ([2]; peptide 100 µM, Repeat 1): 0
- ADP-ribosylation level ([2]; peptide 100 µM, Repeat 2): 0,032044
- ADP-ribosylation level ([2]; peptide 100 µM, Repeat 3): 0,093063
- effect on TcART modification of F-actin (in words) ([2]; peptides up to 100 µM): inhibited TcART activity in a similar dose-dependent manner
- competition for binding site on actin filaments (actin filaments): competes with cofilin, myosin, and other actin-binding factors for the same binding site on actin filaments
- effect on actin-dependent morphogenesis [3]: dramatically altered actin-dependent morphogenesis

Substance: MARPRGAGPCSPGLERAPRRSVGELRLLFEARCAAVAAAAAAG [F-tractin, 43 amino acid peptide, residues 10–52 of rat inositol 1,4,5-trisphosphate 3-kinase A; EGFP fusion in cell assays]
- actin bundling (in words) (F-actin [1]; in vitro, up to 100 µM, low-speed centrifugation and cryo-EM): strong bundling effect on F-actin
- F-actin in the pellet (F-actin [1]; peptide 1 µM, Repeat 1): 0,052087
- F-actin in the pellet (F-actin [1]; peptide 1 µM, Repeat 2): 0,032888
- F-actin in the pellet (F-actin [1]; peptide 1 µM, Repeat 3): 0,047528
- F-actin in the pellet (F-actin [1]; peptide 10 µM, Repeat 1): 0,092603
- F-actin in the pellet (F-actin [1]; peptide 10 µM, Repeat 2): 0,600815
- F-actin in the pellet (F-actin [1]; peptide 10 µM, Repeat 3): 0,323365
- F-actin in the pellet (F-actin [1]; peptide 100 µM, Repeat 1): 0,999376
- F-actin in the pellet (F-actin [1]; peptide 100 µM, Repeat 2): 0,989657
- F-actin in the pellet (F-actin [1]; peptide 100 µM, Repeat 3): 0,931572
- F-tractin occupancy on F-actin (F-actin [4]; estimated from alignment-free 3D classification, 100 μM peptide): ~ 50%
- appearance of actin filaments by cryo-EM (F-actin [4]; preformed F-actin incubated with 100 μM peptide): large heterogeneous bundles instead of single actin filaments
- cell stiffness and cell migration (cells): increase in cell stiffness and reduction in cell migration
- effect of expression on actin structures (Xenopus XTC cells): induced radial actin bundles and longer filopodia
- effect on fertility and actin in Drosophila oogenesis (Drosophila): without causing female sterility or significant actin defects
- reporting on F-actin organization in primary neurons (primary neurons): without notable effects on cell function
